Laboratory results as given in patent US11285156B2, “Substituted piperazines as KRAS G12C inhibitors” (Amgen Inc., priority 2018, dated 2022).

Each compound was assayed against GDP-bound KRAS protein (aa 1-169), containing both G12C and C118A amino acid substitutions (Homo sapiens (Human), UniProt P01116, C118A/G12C) (assay: Coupled nucleotide exchange assay (SOS-mediated nucleotide exchange, AlphaScreen)). Conditions: 5 min compound pre-incubation.
Format: biochemical

Chain of GDP-bound KRAS protein (aa 1-169), containing both G12C and C118A amino acid substitutions (P01116 other isoform, or with tags, fused parts or gaps G12C/C118A): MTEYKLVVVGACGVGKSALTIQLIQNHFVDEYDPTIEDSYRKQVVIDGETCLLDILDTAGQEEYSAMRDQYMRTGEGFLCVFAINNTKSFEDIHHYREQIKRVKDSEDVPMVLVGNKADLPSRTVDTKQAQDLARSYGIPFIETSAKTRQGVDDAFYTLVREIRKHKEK

Coupled exchange IC50 (5 min; μM) [µM]	Compound
0.408	[2H]C1([2H])N(C(=O)C=C)C([2H])([2H])C([2H])([2H])N(c2nc(=O)n(-c3c(C)ccnc3C(C)C)c3nc(-c4c(O)cccc4F)c(F)cc23)C1([2H])[2H] (atropisomer, axis not shown; (M)) [Example 72-22, (M)-6-Fluoro-7-(2-fluoro-6-hydroxy-phenyl)-1-(2-isopropyl-4-methyl-3-pyridyl)-4-(2,2,3,3,5,5,6,6-octadeuterio-4-prop-2-enoyl-piperazin-1-yl)pyrido[2,3-d]pyrimidin-2-one]

Same assay, conditions: read-out: Coupled exchange IC50 (5 min; μM); 5 min compound pre-incubation

Compound	IC50 [µM]
C=CC(=O)N1C[C@H](C)N(c2nc(=O)n(-c3c(C)ccnc3C(C)C)c3nc(N4CCCC4C(F)F)c(Cl)cc23)C[C@H]1C (atropisomer, axis not shown; (M)) [Example 69-10, (M)-6-Chloro-7-[2-(difluoromethyl)pyrrolidin-1-yl]-4-[(2S,5R)-2,5-dimethyl-4-prop-2-enoyl-piperazin-1-yl]-1-(2-isopropyl-4-methyl-3-pyridyl)pyrido[2,3-d]pyrimidin-2-one]	11
C=CC(=O)N1C[C@H](C)N(c2nc(=O)n(-c3c(C)ccnc3C(C)C)c3nc(N4CCCCC4)c(Cl)cc23)C[C@H]1C (atropisomer, axis not shown; (M)) [Example 69-11, (M)-6-Chloro-4-[(2S,5R)-2,5-dimethyl-4-prop-2-enoyl-piperazin-1-yl]-1-(2-isopropyl-4-methyl-3-pyridyl)-7-(1-piperidyl)pyrido[2,3-d]pyrimidin-2-one]	1.14
C=CC(=O)N1C[C@H](C)N(c2nc(=O)n(-c3c(C)ccnc3C(C)C)c3nc(-c4ccccc4P(C)(C)=O)c(F)cc23)C[C@H]1C (atropisomer, axis not shown; (M)) [Example 72-23, (M)-7-(2-Dimethylphosphorylphenyl)-4-[(2S,5R)-2,5-dimethyl-4-prop-2-enoyl-piperazin-1-yl]-6-fluoro-1-(2-isopropyl-4-methyl-3-pyridyl)pyrido[2,3-d]pyrimidin-2-one]	0.647
C=CC(=O)N1[C@@H]2CC[C@H]1CN(c1nc(=O)n(-c3c(C)ccnc3C(C)C)c3nc(-c4ccccc4F)c(Cl)cc13)C2 (atropisomer, axis not shown; (M)) [Example 79-10, (M)-6-Chloro-7-(2-fluorophenyl)-1-(2-isopropyl-4-methyl-3-pyridyl)-4-[(1S,5R)-8-prop-2-enoyl-3,8-diazabicyclo[3.2.1]octan-3-yl]pyrido[2,3-d]pyrimidin-2-one]	2.78
C=CC(=O)N1C[C@@H]2CC[C@H]1CN2c1nc(=O)n(-c2c(C)ccnc2C(C)C)c2nc(-c3ccccc3F)c(Cl)cc12 (atropisomer, axis not shown; (M)) [Example 79-11, (M)-6-Chloro-7-(2-fluorophenyl)-1-(2-isopropyl-4-methyl-3-pyridyl)-4-[(1S,4S)-5-prop-2-enoyl-2,5-diazabicyclo[2.2.2]octan-2-yl]pyrido[2,3-d]pyrimidin-2-one]	26.7
C=CC(=O)N1C[C@H]2CCC[C@@H](C1)N2c1nc(=O)n(-c2c(C)ccnc2C(C)C)c2nc(-c3ccccc3F)c(Cl)cc12 (atropisomer, axis not shown; (M)) [Example 79-12, (M)-6-Chloro-7-(2-fluorophenyl)-1-(2-isopropyl-4-methyl-3-pyridyl)-4-[(1S,5R)-3-prop-2-enoyl-3,9-diazabicyclo[3.3.1]nonan-9-yl]pyrido[2,3-d]pyrimidin-2-one]	5.46
C=CC(=O)N1C[C@H](C)N(c2nc(=O)n(-c3c(C)ccnc3C(C)C)c3nc(C=C(C)C)c(Cl)cc23)C[C@H]1C (atropisomer, axis not shown; (M)) [Example 92-8, (M)-6-Chloro-4-[(2S,5R)-2,5-dimethyl-4-prop-2-enoyl-piperazin-1-yl]-1-(2-isopropyl-4-methyl-3-pyridyl)-7-(2-methylprop-1-enyl)pyrido[2,3-d]pyrimidin-2-one]	0.985
C=CC(=O)N1C[C@H](C)N(c2nc(=O)n(-c3c(C)ccnc3C(C)C)c3nc(C4=CCOCC4)c(Cl)cc23)C[C@H]1C (atropisomer, axis not shown; (M)) [Example 92-9, (M)-6-Chloro-7-(3,6-dihydro-2H-pyran-4-yl)-4-[(2S,5R)-2,5-dimethyl-4-prop-2-enoyl-piperazin-1-yl]-1-(2-isopropyl-4-methyl-3-pyridyl)pyrido [2,3-d]pyrimidin-2-one]	8.53
C=CC(=O)N1C[C@H](C)N(c2nc(=O)n(-c3c(C)ccnc3C(C)C)c3nc(-c4cccc5c4NC(=O)C5)c(Cl)cc23)C[C@H]1C (atropisomer, axis not shown; (M)) [Example 92-20, (M)-6-Chloro-4-[(2S,5R)-2,5-dimethyl-4-prop-2-enoyl-piperazin-1-yl]-1-(2-isopropyl-4-methyl-3-pyridyl)-7-(2-oxoindolin-7-yl)pyrido[2,3-d]pyrimidin-2-one]	0.403
C=CC(=O)N1C[C@H](C)N(c2nc(=O)n(-c3c(C)ccnc3C(C)C)c3[nH]c(=O)c(Cl)cc23)C[C@H]1C (atropisomer, axis not shown; (M)) [Example 92-22, (M)-6-Chloro-4-[(2S,5R)-2,5-dimethyl-4-prop-2-enoyl-piperazin-1-yl]-1-(2-isopropyl-4-methyl-3-pyridyl)-8H-pyrido[2,3-d]pyrimidine-2,7-dione]	2.94
C=CC(=O)N1C[C@H](C)N(c2nc(=O)n(-c3c(C)ccnc3C(C)C)c3nc(-c4cccc5cn[nH]c45)c(Cl)cc23)C[C@H]1C (atropisomer, axis not shown; (M)) [Example 92-30, (M)-6-Chloro-4-[(2S,5R)-2,5-dimethyl-4-prop-2-enoyl-piperazin-1-yl]-7-(1H-indazol-7-yl)-1-(2-isopropyl-4-methyl-3-pyridyl)pyrido [2,3-d]pyrimidin-2-one]	0.479
C=CC(=O)N1C[C@H](C)N(c2nc(=O)n(-c3c(C)ccnc3C(C)C)c3nc(-c4ccccc4NC(=O)C(C)(C)C)c(Cl)cc23)C[C@H]1C (atropisomer, axis not shown; (M)) [Example 92-35, (M)-N-[2-[6-Chloro-4-[(2S,5R)-2,5-dimethyl-4-prop-2-enoyl-piperazin-1-yl]-1-(2-isopropyl-4-methyl-3-pyridyl)-2-oxo-pyrido[2,3-d]pyrimidin-7-yl]phenyl]-2,2-dimethyl-propanamide]	0.758
C=CC(=O)N1C[C@H](C)N(c2nc(=O)n(-c3c(C)ccnc3C(C)C)c3nc(-c4ccsc4)c(Cl)cc23)C[C@H]1C (atropisomer, axis not shown; (M)) [Example 92-50, (M)-6-Chloro-4-[(2S,5R)-2,5-dimethyl-4-prop-2-enoyl-piperazin-1-yl]-1-(2-isopropyl-4-methyl-3-pyridyl)-7-(3-thienyl)pyrido[2,3-d]pyrimidin-2-one]	1.1
C=CC(=O)N1C[C@H](C)N(c2nc(=O)n(-c3c(C)ccnc3C(C)C)c3nc(-c4cccc(C(F)(F)F)c4)c(Cl)cc23)C[C@H]1C (atropisomer, axis not shown; (M)) [Example 92-56, (M)-6-Chloro-4-[(2S,5R)-2,5-dimethyl-4-prop-2-enoyl-piperazin-1-yl]-1-(2-isopropyl-4-methyl-3-pyridyl)-7-[3-(trifluoromethyl)phenyl]pyrido [2,3-d]pyrimidin-2-one]	0.591
C=CC(=O)N1C[C@H](C)N(c2nc(=O)n(-c3c(C)ccnc3C(C)C)c3nc(-c4cncnc4C(C)C)c(Cl)cc23)C[C@H]1C (atropisomer, axis not shown; (M)) [Example 92-68, (M)-6-Chloro-4-[(2S,5R)-2,5-dimethyl-4-prop-2-enoyl-piperazin-1-yl]-1-(2-isopropyl-4-methyl-3-pyridyl)-7-(4-isopropylpy-rimidin-5-yl)pyrido[2,3-d]pyrimidin-2-one]	3.31
C=CC(=O)N1C[C@H](C)N(c2nc(=O)n(-c3c(C)ccnc3C(C)C)c3nc(-c4cccnc4C4CC4)c(Cl)cc23)C[C@H]1C (atropisomer, axis not shown; (M)) [Example 92-69, (M)-6-Chloro-7-(2-cyclopropyl-3-pyridyl)-4-[(2S,5R)-2,5-dimethyl-4-prop-2-enoyl-piperazin-1-yl]-1-(2-isopropyl-4-methyl-3-pyridyl)pyrido [2,3-d]pyrimidin-2-one]	1.36
C=CC(=O)N1C[C@H](C)N(c2nc(=O)n(-c3c(C)ccnc3C(C)C)c3nc(-c4cc(OC)cc5ccccc45)c(Cl)cc23)C[C@H]1C (atropisomer, axis not shown; (M)) [Example 92-70, (M)-6-Chloro-4-[(2S,5R)-2,5-dimethyl-4-prop-2-enoyl-piperazin-1-yl]-1-(2-isopropyl-4-methyl-3-pyridyl)-7-(3-methoxy-1-naphthyl)pyrido [2,3-d]pyrimidin-2-one]	0.6
C=CC(=O)N1C[C@H](C)N(c2nc(=O)n(-c3c(C)ccnc3C(C)C)c3nc(-c4nc(C)sc4C)c(Cl)cc23)C[C@H]1C (atropisomer, axis not shown; (M)) [Example 92-71, (M)-6-Chloro-4-[(2S,5R)-2,5-dimethyl-4-prop-2-enoyl-piperazin-1-yl]-7-(2,5-dimethylthiazol-4-yl)-1-(2-isopropyl-4-methyl-3-pyridyl)pyrido [2,3-d]pyrimidin-2-one]	1.36
C=CC(=O)N1C[C@H](C)N(c2nc(=O)n(-c3c(C)ccnc3C(C)C)c3nc(-c4scnc4C)c(Cl)cc23)C[C@H]1C (atropisomer, axis not shown; (M)) [Example 92-72, (M)-6-Chloro-4-[(2S,5R)-2,5-dimethyl-4-prop-2-enoyl-piperazin-1-yl]-1-(2-isopropyl-4-methyl-3-pyridyl)-7-(4-methylthiazol-5-yl)pyrido[2,3-d]pyrimidin-2-one]	8.87
C=CC(=O)N1C[C@H](C)N(c2nc(=O)n(-c3c(C)ccnc3C(C)C)c3nc(-c4cc(F)ccc4F)c(F)cc23)C[C@H]1C (atropisomer, axis not shown; (M)) [Example 94-3, (M)-7-(2,5-difluorophenyl)-4-[(2S,5R)-2,5-dimethyl-4-prop-2-enoyl-piperazin-1-yl]-6-fluoro-1-(2~ isopropyl-4-methyl-3-pyridyl)pyrido [2,3-d]pyrimidin-2-one]	0.684
